The values below come from article PMC10748408 (Frontiers in Oncology, 2023).

In this series the test system is TLR4. Nature of the series: TLR4 silencing by vivo-morpholino, western blot of tumors. In kind it is in vivo, BALB/c mice. The settings on record: tumor-bearing mice, with 25 mg/kg ART, vs SC-MO, p<0.001. As to the method:
Normal and tumor tissues were homogenized in ice-cold radioimmunoprecipitation assay (RIPA) buffer containing a protease inhibitor cocktail. Proteins were resolved by 10% sodium dodecyl sulphate-polyacrylamide gel electrophoresis (SDS-PAGE), transferred onto polyvinylidene difluoride (PVDF) membranes, blocked with 5% fat-free milk and incubated with primary antibodies (1:1000 dilution) overnight at 4°C. Blots were subsequently washed and incubated with respective secondary antibodies, tagged with horseradish peroxidase. Protein expression was detected using enhanced chemiluminescence (ECL) kit ([37]). Blots were analyzed using the Gel Doc XR and band intensity quantified using ImageJ software (NIH, USA).
Murine mammary tumors were allowed to develop in BALB/c mice injected with 10^7 4T1 cells. […] Control groups were set up, where normal mice and mice-bearing tumors received PBS for 7 days. At the end of the experiment, tissues were harvested and processed for subsequent experiments.
(In general: In western blotting, separated proteins are transferred to a membrane and probed.)

On to “TLR4-VMO: vivo morpholino oligomers against TLR4 mRNA; 5' CAGGGAGGCATCATCCTGGCATTTT 3' (all phosphorodiamidate morpholino (PMO); vivo-morpholino from GeneTools, further chemistry not fully specified)”, for which the TLR4 expression entry was “significantly diminished”.
